Experimental findings from paper PMC6628435, “Chemical Synthesis, Proper Folding, Nav Channel Selectivity Profile and Analgesic Properties of the Spider Peptide Phlotoxin 1” (Toxins, 2019) are described below.

Bridge positions count the residues as written; N and C are the ends. Peptide text beside a SMILES is read from it.

The IC50 is the midpoint of a concentration-inhibition curve. A higher IC50 goes with weaker potency.

In assay [1] the target is T1, human Nav1.7 (Homo sapiens, UniProt Q15858).
T1 construct: expressed in transfected cells
Kind of assay: Automated patch-clamp (Nanion SyncroPatch 384PE) on CHO cells expressing human Nav1.7. The assay is classed as cell-based. Particulars: for time constant of inhibition: mono-exponential fit. The source says: We used a CHO mammalian cell line expressing the human Nav1.7 instead of Xenopus oocytes for the pharmacological evaluation. […] 100-ms pulses from −100 mV to −10 mV were applied at a frequency of 0.2 Hz and various concentrations of PhlTx1 were applied to the cells. […] Using a manual patch clamp, which is better suited to investigate current recovery from block than an automated patch clamp that requires several washing steps, we investigated the reversibility properties of a PhlTx1 block.
CHO cells stably expressing the human Nav1.7 cells were cultured in Dulbecco’s Modified Eagle’s Medium (DMEM) supplemented with 10% fetal calf serum, 1 mM pyruvic acid, 4 mM glutamine, 10 IU/mL penicillin and 10 μg/mL streptomycin (Gibco, Grand Island, NY, USA), and incubated at 37 °C in a 5% CO2 atmosphere. For automated patch-clamp recordings, cells were detached with trypsin and floating single cells were diluted (~300,000 cells/mL) in medium contained (in mM): 4 KCl, 140 NaCl, 5 Glucose, 10 HEPES (pH 7.4, osmolarity 290 mOsm).
Chips with single-hole and high-resistance (~6–7 MΩ) were used for CHO cell recordings. Voltage pulses and whole-cell recordings were achieved using the PatchControl384 v1.5.2 software (Nanion, Munich, Germany) and the Biomek v1.0 interface (Beckman Coulter). Prior recordings, dissociated cells were shaken at 60 RPM in a cell hotel reservoir at 10 °C. After cell catching, sealing, whole-cell formation, liquid application, recording, and data acquisition were all performed sequentially and automatically. […] Whole-cell experiments were done at −100 mV holding potential and at room temperature (18–22 °C), while currents triggered at −10 mV test potential were sampled at 20 kHz. Stimulation frequency was set at 0.2 Hz. Toxins were prepared at various concentrations in the extracellular solution, itself supplemented with 0.3% BSA. […] Compound solutions were diluted 3 times in the patch-clamp recording well by adding 30 μL to 60 μL external solution to reach the final reported concentration and the test volume of 90 μL. Percentages of current inhibitions were measured at the end of a 12- to 15-min application time (12-min for fast blocking toxins; 15-min for slow blocking ones). A single concentration of peptide was tested on each cell for building the full-inhibition curves.
(In patch-clamp work, channel activity is measured electrically.)

The target in assay [2] is T2, hNav1.7 (Homo sapiens, UniProt Q15858).
T2 construct: expressed in transfected cells
The assay can be described thus: Manual patch clamp, reversibility of block of hNav1.7 currents. The assay is classed as cell-based. The source says:
Following our initial screen for the selectivity of synthetic PhlTx1 and the discovery that Nav1.7 was the main target, we decided to further evaluate the activity of PhlTx1. We used a CHO mammalian cell line expressing the human Nav1.7 instead of Xenopus oocytes for the pharmacological evaluation. To this end, we used an automated patch-clamp system, the Nanion syncropatch 384PE, and a standardized robotic method from Beckmann to apply PhlTx1 in the recording chambers and collect the kinetic information of Nav1.7 current from a high number of Nav1.7-expressing cells. The syncropatch 384PE has the potential to record from 384 cells at a time. 100-ms pulses from −100 mV to −10 mV were applied at a frequency of 0.2 Hz and various concentrations of PhlTx1 were applied to the cells. An example of a Nav1.7 current recording is illustrated in Figure 6A along with the effect of 100 nM PhlTx1. It is of interest to note that current inhibition develops over time at this PhlTx1 concentration that is above 50% at the end of a 13-min application time. […] Note that the highest achievable inhibition was 85%–92% for the two most efficient concentrations (333 nM and 1 μM). The time constant of inhibition was concentration-dependent as expected and could be fitted with decreasing mono-exponentials with time constants of 253 s (33 nM, n = 4), 159 s (100 nM, n = 8), 97 s (333 nM, n = 6) and 36 s (1 μM, n = 8). […] Using a manual patch clamp, which is better suited to investigate current recovery from block than an automated patch clamp that requires several washing steps, we investigated the reversibility properties of a PhlTx1 block. […] After 16 min of washout of 100 nM PhlTx1, we observed a maximum of 32% recovery of the blocked current that occurred with a time constant of 303 s. Since Nav1.4 and Nav1.6 were the two most sensitive channels to the PhlTx1 block, we also performed dose-response curves for these two channels with the automated patch clamp system.
Figure 6 PhlTx1 inhibition of Nav1.7 channels expressed in a mammalian cell line. […]

T2 sequence (Q15858 whole entry): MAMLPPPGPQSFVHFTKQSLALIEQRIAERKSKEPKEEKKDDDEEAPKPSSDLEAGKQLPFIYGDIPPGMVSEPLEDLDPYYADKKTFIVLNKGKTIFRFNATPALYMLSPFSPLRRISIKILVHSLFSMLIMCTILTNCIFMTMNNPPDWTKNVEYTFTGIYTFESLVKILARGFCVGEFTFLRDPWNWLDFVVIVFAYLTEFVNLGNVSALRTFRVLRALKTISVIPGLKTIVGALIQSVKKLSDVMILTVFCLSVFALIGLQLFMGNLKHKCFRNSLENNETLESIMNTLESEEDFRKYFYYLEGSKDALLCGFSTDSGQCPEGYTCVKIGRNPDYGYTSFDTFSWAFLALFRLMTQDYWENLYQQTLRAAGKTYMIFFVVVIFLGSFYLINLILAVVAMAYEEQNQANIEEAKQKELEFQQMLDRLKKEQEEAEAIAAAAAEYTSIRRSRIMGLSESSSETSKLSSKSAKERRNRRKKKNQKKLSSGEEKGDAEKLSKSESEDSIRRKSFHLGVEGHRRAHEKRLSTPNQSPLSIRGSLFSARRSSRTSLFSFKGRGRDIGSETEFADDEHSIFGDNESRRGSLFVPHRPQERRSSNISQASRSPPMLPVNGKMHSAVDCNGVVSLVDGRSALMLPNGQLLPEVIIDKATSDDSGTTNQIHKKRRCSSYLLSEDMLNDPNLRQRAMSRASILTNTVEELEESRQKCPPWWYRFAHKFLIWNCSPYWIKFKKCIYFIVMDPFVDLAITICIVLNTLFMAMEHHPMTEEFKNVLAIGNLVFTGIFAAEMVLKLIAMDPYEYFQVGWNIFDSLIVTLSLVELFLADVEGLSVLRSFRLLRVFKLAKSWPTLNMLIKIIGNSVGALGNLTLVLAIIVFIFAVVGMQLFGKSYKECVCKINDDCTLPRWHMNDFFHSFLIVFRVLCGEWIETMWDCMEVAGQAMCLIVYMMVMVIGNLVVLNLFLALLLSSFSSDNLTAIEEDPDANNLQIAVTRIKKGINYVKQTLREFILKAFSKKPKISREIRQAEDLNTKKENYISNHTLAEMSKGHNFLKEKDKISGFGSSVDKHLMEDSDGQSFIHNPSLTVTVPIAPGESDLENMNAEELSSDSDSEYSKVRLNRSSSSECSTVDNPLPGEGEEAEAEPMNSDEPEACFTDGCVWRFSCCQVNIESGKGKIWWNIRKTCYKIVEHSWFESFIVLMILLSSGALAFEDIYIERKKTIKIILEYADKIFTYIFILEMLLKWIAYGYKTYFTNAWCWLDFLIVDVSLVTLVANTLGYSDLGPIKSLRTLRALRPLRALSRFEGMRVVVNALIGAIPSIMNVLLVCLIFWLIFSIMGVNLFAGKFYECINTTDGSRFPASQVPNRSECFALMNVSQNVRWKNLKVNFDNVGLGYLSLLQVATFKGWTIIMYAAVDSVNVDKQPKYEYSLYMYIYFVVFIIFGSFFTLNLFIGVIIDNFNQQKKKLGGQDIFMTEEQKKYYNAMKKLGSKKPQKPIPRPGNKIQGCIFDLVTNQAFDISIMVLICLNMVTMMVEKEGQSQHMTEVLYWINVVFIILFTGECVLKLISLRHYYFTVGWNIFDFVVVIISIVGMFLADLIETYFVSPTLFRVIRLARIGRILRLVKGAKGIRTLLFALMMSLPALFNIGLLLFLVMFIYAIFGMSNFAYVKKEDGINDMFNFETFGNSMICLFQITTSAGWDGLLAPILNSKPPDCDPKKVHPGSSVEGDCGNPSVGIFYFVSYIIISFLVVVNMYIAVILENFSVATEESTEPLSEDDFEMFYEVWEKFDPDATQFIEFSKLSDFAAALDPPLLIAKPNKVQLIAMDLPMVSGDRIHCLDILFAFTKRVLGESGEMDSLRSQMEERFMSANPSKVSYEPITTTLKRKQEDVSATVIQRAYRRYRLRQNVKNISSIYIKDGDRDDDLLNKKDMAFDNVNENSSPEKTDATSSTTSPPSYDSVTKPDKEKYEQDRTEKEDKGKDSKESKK
T1 sequence (Q15858 whole entry): as above

As for `CC(C)C[C@@H]1NC(=O)[C@@H](NC(=O)[C@H](C)N)CSSC[C@@H]2NC(=O)[C@@H]3CSSC[C@@H](C(=O)N[C@@H](CCCNC(=N)N)C(=O)N[C@@H](Cc4ccc(O)cc4)C(=O)N[C@@H](CCCCN)C(=O)N[C@@H](CC(C)C)C(=O)N[C@@H](Cc4ccccc4)C(=O)O)NC(=O)[C@H](Cc4c[nH]c5ccccc45)NC(=O)[C@@H]4CCCN4C(=O)[C@H](Cc4ccc(O)cc4)NC(=O)[C@H](CCCCN)NC(=O)[C@H](Cc4c[nH]c5ccccc45)NC(=O)[C@H](CCC(=O)O)NC(=O)[C@H](CSSC[C@H](NC(=O)[C@H](CO)NC(=O)[C@H](CC(=O)O)NC(=O)[C@H](Cc4c[nH]c5ccccc45)NC(=O)[C@H](CCC(N)=O)NC(=O)CNC1=O)C(=O)N[C@@H](CC(=O)O)C(=O)N1CCC[C@H]1C(=O)N[C@@H](CCCCN)C(=O)N[C@@H](C)C(=O)N[C@@H](CO)C(=O)N[C@@H](CCCCN)C(=O)N3)NC(=O)[C@H](C)NC(=O)[C@H](Cc1ccc(O)cc1)NC(=O)[C@H](CC(N)=O)NC(=O)[C@@H]1CCCN1C2=O` [PhlTx1, Phlotoxin-1] (H-ACLGQWDSCDPKASKCCPNYACEWKYPWCRYKLF-OH; disulfide 2-17, 9-22, 16-29; N-terminus and C-terminus assumed), in assay [1], the IC50 is 39 nM. The “time constant of inhibition” value is 253 s in assay [1] (33 nM, n = 4); 97 s in assay [1] (333 nM, n = 6); 36 s in assay [1] (1 μM, n = 8). In assay [1] (100 nM toxin, end of application (about 12-13 min), CHO hNav1.7), the “block of Nav1.7 inward current” value is given as “above 50%”. For the same molecule, the “time constant of inhibition (τ)” value in assay [1] (100 nM, mono-exponential fit (PhlTx1 n = 8)) turned out to be 159 s. Moreover, in assay [1] (1 μM PhlTx1, normalized current), the “c value of mono-exponential decay fit (block not complete)” value is reported as 0.09. Also, in assay [1] (same dose-response fit as IC50, CHO hNav1.7 automated patch-clamp), the Hill value amounted to 1.53. Besides, in assay [1] (two most efficient concentrations (333 nM and 1 μM)), the highest achievable inhibition is on record as 85%–92%. Besides, the reversibility of block entry in assay [2] was “partially and poorly reversible”. For the same molecule, the “maximum recovery of the blocked current” value in assay [2] (after 16 min of washout of 100 nM PhlTx1, n = 5 cells) is on record as at most 32%. In assay [2] (washout of 100 nM PhlTx1, n = 5 cells), the “time constant of recovery from block” value is recorded as 303 s.
